# From patent US20250263370A1 (Tay Therapeutics Limited, priority 2022, published 2025)
# Where “and” joins values, the source holds several entries; their conditions need not be identical. Equal values may be shown once. Entries after “also recorded” stand apart in the source; their conditions may differ.
# Tested on: renal fibrosis
# Experiment: Unilateral Urethral Obstruction (UUO) renal fibrosis model in rats: body weight, clinical observations, histopathology scores, serum urea, hydroxyproline
# Type: in vivo, rat
# Design: Glomerulosclerosis score / Interstitial nephritis score / Collagen fiber deposition score / Nephropathy score / Total score: scale not given here
# Details: for Clinical Observation: — = no observation
# From the text: Unilateral Urethral Obstruction (UUO) is a complex model of renal fibrosis (RF) disease. RF is a common outcome in progressive chronic kidney diseases, characterized by excessive formation of internal scar tissue. Surgical obstruction of urine flow can be used to trigger this disease in rodents. The UUO model allows for evaluation of potential drugs as treatment for RF.
# Experimental groups for the study are outlined in Table 10. […] Briefly, animals were anesthetized using a Zoletil/Xylazine mixture (20:1, v:v) for a final dose of 25 mg/kg. The operation area was disinfected with 75% alcohol before shaving. Rats in UUO group were exposed left ureter through a small incision on the left side of the abdomen and ligated with 3-0 silk at two locations about 0.5 cm below the renal hilum. The ureters of sham rats in Group 1 were manipulated but not ligated.
# Starting on Day 0, animals in group 2 were administered daily doses of the vehicle for 14 days.
# Clinical signs for all animals were monitored and recorded daily. Blind clinical nephropathy scores were conducted for all animals in the study. Glomerulosclerosis, interstitial nephritis, collagen fiber deposition, nephropathy were each assessed for all experimental rats, and a total clinical score was determined for each rat. The scoring system represented the degree or percentage of lesions in the whole kidney. Clinical score assessments were performed on Day 14.
# Serum for blood biochemistry analysis was collected into centrifuge tubes without coagulant four hours after final dosing. Blood plasma samples from group 3 was collected into tubes with K2EDTA four hours after final dosing. At the conclusion of the study (end of the 14-day period), animals were euthanized. Kidney tissue was collected four hours after final dosing. Ligated side kidney was divided into three copies ⅓ fix into 10% formalin for H&E analysis, ⅓ into RNA for PCR analysis of tissue biomarkers Col1a1, TGF-b1, MCP-1, IL-1b, IL-6, IL-17, TNF-a, and Timp1, and ⅓ for hydroxyproline assay analyzed by ELISA. RNA was extracted from tissue using the RNeasy mini kit (Qiagen). RNA concentration was measured using a NanoDrop One Spectrophotometer (ThermoFisher) and converted to cDNA using a High-Capacity RNA-to-cDNA kit (Invitrogen). RT-PCR was performed to measure levels of mRNA of different targets using TaqMan® Gene Expression Master Mix and TaqMan® probe/primer sets on a QuantStudio 6, Real-Time PCR System (ThermoFisher). Fold change in target gene expression was determined using the ΔΔCt method.
# [1] = 30 mg/kg BID for 14 days (group 3)
# [2] = Example 101 30 mg/kg, individual animals, histopathology score
structure (smiles),measurement,setting,value
"CNC(=O)c1[nH]c(C(=O)NC2CCC2)cc1O[C@@H](C)c1ccccc1 (stereo in doubt) [Example 101, N^5-cyclobutyl-N^2-methyl-3-(1-phenylethoxy)-1H-pyrrole-2,5-dicarboxamide]",overall effect in UUO / renal fibrosis,30 mg/kg,ameliorates clinical symptoms associated with UUO; also recorded: surprisingly effective against renal fibrosis and renal fibrosis-related conditions
same,animals that exhibited diarrhea in addition to soft stools,[1],One animal
same,animals that exhibited dirty anuses,[1],Three animals
same,body weight over the 14-day study,[1],"slight weight loss over the first seven days of the study, and then gained weight over the remaining seven days"
same,rats that exhibited soft stools during the study,[1],Four
same,level of collagen fiber deposition relative to UUO + vehicle,"30 mg/kg BID, Day 14",reduced
same,level of interstitial nephritis relative to UUO + vehicle,"30 mg/kg BID, Day 14",reduced
same,level of nephropathy relative to UUO + vehicle,"30 mg/kg BID, Day 14",reduced
same,pathology staining of kidney (FIG. 13B),"30 mg/kg BID, Day 14","mild interstitial nephritis with neutrophil and lymphocyte infiltration, degeneration and necrosis of renal tubular epithelial cells, and high tubular dilatation"
same,total clinical scores relative to UUO + vehicle,"30 mg/kg BID, Day 14",reduced
same,serum urea levels between the three experimental groups,"30 mg/kg BID, four hours after final dosing",No significant differences
same,hydroxyproline levels between the three experimental groups,"30 mg/kg BID, kidney tissue",No significant differences
same,Body weight,"30 mg/kg, Day 0, individual animals",324 g and 307 g and 295 g and 302 g and 285 g and 297 g and 294 g and 306 g
same,Body weight,"30 mg/kg, Day 1, individual animals",293 g and 284 g (2×) and 277 g (2×) and 279 g and 276 g and 302 g
same,Body weight,"30 mg/kg, Day 2, individual animals",299 g (2×) and 274 g (3×) and 275 g and 273 g and 303 g
same,Body weight,"30 mg/kg, Day 3, individual animals",306 g and 266 g and 267 g and 274 g (2×) and 278 g and 304 g and 305 g
same,Body weight,"30 mg/kg, Day 4, individual animals",315 g and 259 g and 262 g and 276 g and 283 g and 277 g and 309 g and 312 g
same,Body weight,"30 mg/kg, Day 5, individual animals",310 g and 263 g and 254 g and 282 g and 284 g and 279 g and 302 g and 315 g
same,Body weight,"30 mg/kg, Day 6, individual animals",323 g and 265 g and 258 g and 286 g and 285 g and 284 g and 304 g and 321 g
same,Body weight,"30 mg/kg, Day 7, individual animals",322 g and 270 g and 258 g and 297 g and 289 g and 287 g and 307 g and 324 g
same,Body weight,"30 mg/kg, Day 8, individual animals",322 g and 271 g and 260 g and 296 g
same,Body weight,"30 mg/kg, Day 9, individual animals",331 g and 276 g and 264 g and 303 g
same,Body weight,"30 mg/kg, Day 10, individual animals",330 g and 277 g and 261 g and 311 g
same,Body weight,"30 mg/kg, Day 11, individual animals",327 g and 275 g and 265 g and 297 g
same,Body weight,"30 mg/kg, Day 12, individual animals",318 g and 285 g and 260 g and 291 g
same,Body weight,"30 mg/kg, Day 13, individual animals",328 g and 283 g and 276 g and 304 g
same,Body weight,"30 mg/kg, Day 14, individual animals",334 g and 286 g and 271 g and 313 g
same,Body weight,"30 mg/kg, Day −1, individual animals",306 g and 287 g and 299 g and 295 g and 281 g and 285 g and 296 g and 301 g
same,Serum Urea Mean ± SD,"30 mg/kg, group mean",5.85 ± 0.69 mmol/L
same,Serum Urea,"30 mg/kg, individual animals",4.95 mmol/L and 6.04 mmol/L and 6.62 mmol/L and 5.01 mmol/L and 5.28 mmol/L and 6.26 mmol/L and 5.90 mmol/L and 6.70 mmol/L
same,Collagen fiber deposition score,[2],2 (2×) and 1 (6×)
same,Glomerulosclerosis score,[2],0
same,Interstitial nephritis score,[2],3 (5×) and 2 (3×)
same,Nephropathy score,[2],2 (2×) and 1 (6×)
same,Total score,"Example 101 30 mg/kg, individual animals, sum of histopathology scores",7 (2×) and 5 (3×) and 4 (3×)
same,"Body weight, Mean ± SD","group 3, Day 0, group mean",301 g
same,"Body weight, Mean ± SD","group 3, Day 1, group mean",284 g
same,"Body weight, Mean ± SD","group 3, Day 2, group mean",284 g
same,"Body weight, Mean ± SD","group 3, Day 3, group mean",284 g
same,Clinical Observation,"group 3, Day 3, individual animals",diarrhea
same,"Body weight, Mean ± SD","group 3, Day 4, group mean",287 g
same,"Body weight, Mean ± SD","group 3, Day 5, group mean",286 g
same,Clinical Observation,"group 3, Day 5, individual animals",Anal
same,"Body weight, Mean ± SD","group 3, Day 6, group mean",291 g
same,Clinical Observation,"group 3, Day 6, individual animals",Anal
same,"Body weight, Mean ± SD","group 3, Day 7, group mean",294 g
same,Clinical Observation,"group 3, Day 7, individual animals",Anal
same,"Body weight, Mean ± SD","group 3, Day 8, group mean",296 g
same,Clinical Observation,"group 3, Day 8, individual animals",soft
same,"Body weight, Mean ± SD","group 3, Day 9, group mean",300 g
same,Clinical Observation,"group 3, Day 9, individual animals",soft
same,"Body weight, Mean ± SD","group 3, Day 10, group mean",303 g
same,Clinical Observation,"group 3, Day 10, individual animals",soft
same,"Body weight, Mean ± SD","group 3, Day 11, group mean",306 g
same,"Body weight, Mean ± SD","group 3, Day 12, group mean",304 g
same,"Body weight, Mean ± SD","group 3, Day 13, group mean",312 g
same,Clinical Observation,"group 3, Day 13, individual animals",soft
same,"Body weight, Mean ± SD","group 3, Day 14, group mean",314 g
same,Clinical Observation,"group 3, Day 14, individual animals",Anal (2×) and soft
same,"Body weight, Mean ± SD","group 3, Day −1, group mean",294 g
same,"Final Hydroxyproline Con., Mean",group mean,0.65 μg/mg tissue
same,Final Hydroxyproline Con.,individual animals,0.72 μg/mg tissue (2×) and 0.69 μg/mg tissue and 0.64 μg/mg tissue and 0.60 μg/mg tissue and 0.66 μg/mg tissue and 0.58 μg/mg tissue and 0.55 μg/mg tissue
